The values that follow are results of earlier work, collected in patent publication US6177253A, “Screening methods for the identification of anti-HIV compounds employing a cyclosporine-specific monoclonal antibody that cross-reacts with HIV-1 p24” (priority 1998, dated 2001).

For the data set the following is noted: single break in a peptide bond by N O shift; cited from earlier work.

With `C/C=C/C[C@@H](C)[C@H]1OC(=O)[C@H](C(C)C)N(C)C(=O)[C@H](CC(C)C)N(C)C(=O)[C@H](CC(C)C)N(C)C(=O)[C@@H](C)NC(=O)[C@H](C)NC(=O)[C@H](CC(C)C)N(C)C(=O)[C@H](C(C)C)NC(=O)[C@H](CC(C)C)N(C)C(=O)CN(C)C(=O)[C@H](CC)NC(=O)[C@H]1NC` [iso-CsA], the biological activity result was “loss of activity”.
